Results as given in US20060025380A1, “Formulations for non-parenteral use including hydrophobic cyclodextrins” (deCODE Chemistry Inc, priority 2004, published 2006).

Experiment: Solubility of drug in aqueous cyclodextrin complexation media (dissolved drug by HPLC)
Type: physicochemical
Experimental: General procedure: Zero to 40% w/v of various cyclodextrins were dissolved in 0.25% (w/v) PVP polymer, 50 mM MgCl2 solutions with 50 to 150 mM of various amino acids, resulting in an aqueous complexation media. An excess amount of drug was added to the aqueous complexation media, with the suspension formed then sonicated for 60 minutes at 75° C. (some drugs can also be heated at 121° C. for 20 minutes in autoclave). After an equilibrium period, the drug suspensions were filtered and the amount of dissolved drug was determined by HPLC.
To provide further information as to a specific example, production of the third camptothecin formulation (with proline) listed below is described. 20% w/v of randomly methylated β-cyclodextrin was dissolved in 0.25% (w/v) CMC polymer, 50 mM MgCl2 solutions with 50 mM of Proline and 0.02M HCl (buffer). The drug concentration was 0.526±0.009 mg/ml.
To provide further information as to a specific example, production of the first trichlocarban formulation (with lysine) listed below is described. 20% w/v of randomly methlyated β-cyclodextrin was dissolved in 0.25% (w/v) PVP polymer, 50 mM MgCl2 solutions with 50 mM of L-Lysine hydrochloride. The drug concentration was 5.72±0.07 mg/ml.

Row | Structure (SMILES) | Camptotechin (CPT) 20% RMβCD (50 mM Proline, 0.25% (w/v) CMC polymer, 50 mM MgCl2, 0.02M HCl) | Camptotechin (CPT) 20% RMβCD (50 mM Proline, 0.25% (w/v) CMC polymer, 50 mM MgCl2, 0.02M HCl, listed as camptothecin) | Camptotechin (CPT) 20% RMβCD (Cysteine) | Camptotechin (CPT) 20% RMβCD (Lysine) | Camptotechin (CPT) 20% RMβCD (No amino acid) | Camptotechin (CPT) 20% RMβCD (Tryptophan) | Camptotechin (CPT) 40% HPβCD (40% HPβCD (first column so headed, c2), Lysine) | Camptotechin (CPT) 40% HPβCD (40% HPβCD (second column so headed, c3), Lysine) | Trichlocarban (TCC) solubility, CD + poly | Trichlocarban (TCC) solubility, CD no AA | solubility of TCC with adipic acid | solubility of TCC with poly-lysine
1 | CC[C@@]1(O)C(=O)OCc2c1cc1n(c2=O)Cc2cc3ccccc3nc2-1 [Camptotechin, camptothecin] | 0.526 ± 0.009 mg/mL | 0.526 ± 0.009 mg/mL | 0.334 ± 0.025 mg/mL | 0.285 ± 0.010 mg/mL | 0.228 ± 0.009 mg/mL | 0.375 ± 0.002 mg/mL | 0.493 ± 0.015 mg/mL | 0.439 ± 0.022 mg/mL |  |  |  | 
2 | O=C(Nc1ccc(Cl)cc1)Nc1ccc(Cl)c(Cl)c1 [Trichlocarban, trichlocarban] |  |  |  |  |  |  |  |  | 2300 ± 240 µg/mL | 2050 ± 150 µg/mL | 5190 ± 210 µg/mL | 4810 ± 210 µg/mL
